Patent publication US20170368148A1, “USES OF A PTHrP ANALOGUE IN REDUCING FRACTURE RISK” (RADIUS HEALTH, INC., priority 2015, published 2017)
Like-named read-outs stand apart in the source and are kept apart here. Marks after values point to notes of the source that are not given here.

Key:
[1] = tested on: postmenopausal women with osteoporosis; conditions: in vivo
Procedure: All subjects received supplemental calcium (500-1000 mg) and vitamin D (400-800 IU) per local practice. […] Blood calcium levels were assessed 4-hours and 24-hours after drug administration. Subjects were monitored for adverse events (AEs) and local tolerance at the injection site at each visit. Clinical and laboratory safety parameters, electrocardiograms, were also measured at each study visit.
Efficacy and safety were assessed using all randomized patients who received at least one dose of study drug. Baseline characteristics and safety parameters were summarized using descriptive statistics. […] All hypotheses were tested at the 2-sided 5% significance level.

[2] = tested on: postmenopausal women with osteoporosis; conditions: in vivo; remark: listed apart in the source
Procedure: (§1) Safety evaluations performed in the ACTIVE trial included physical examinations, vital signs, 12-lead electrocardiograms, or ECGs, clinical laboratory tests and monitoring, and recording of adverse events. Specific safety assessments included pre-dose and post-dose (four hours) determination of serum calcium, determination of creatinine clearance, post-dose ECG assessments at selected visits, and assessments of postural hypotension (60 minutes post-dose) at selected clinic visits.
(§2) The ACTIVE trial also evaluated several potential safety measures, including blood calcium levels, orthostatic hypotension, nausea, dizziness, and injection-site reactions.

[3] = tested on: postmenopausal women with osteoporosis; assay: ACTIVE trial: adverse events; conditions: 18 months; abaloparatide 80 μg (n = 822), teriparatide 20 μg (n = 818)
Procedure: as §1, §2

[4] = tested on: postmenopausal women with osteoporosis
[5] = tested on: postmenopausal women with osteoporosis; assay: ACTIVExtend study: fractures at month 25 (abaloparatide or placebo 18 months, then alendronate 6 months); format: in vivo, human; conditions: abaloparatide 80 μg/day or placebo 18 months
[6] = during alendronate treatment, ACTIVExtend

With `CC[C@H](C)[C@H](NC(=O)[C@H](CO)NC(=O)[C@H](CCCCN)NC(=O)CNC(=O)[C@H](CCCCN)NC(=O)[C@H](CC(=O)O)NC(=O)[C@H](Cc1cnc[nH]1)NC(=O)[C@H](CC(C)C)NC(=O)[C@H](CC(C)C)NC(=O)[C@H](CCC(N)=O)NC(=O)[C@H](Cc1cnc[nH]1)NC(=O)[C@H](CCC(=O)O)NC(=O)[C@H](CO)NC(=O)[C@@H](NC(=O)[C@H](C)N)C(C)C)C(=O)N[C@@H](CCC(N)=O)C(=O)N[C@@H](CC(=O)O)C(=O)N[C@@H](CC(C)C)C(=O)N[C@@H](CCCNC(=N)N)C(=O)N[C@@H](CCCNC(=N)N)C(=O)N[C@@H](CCCNC(=N)N)C(=O)N[C@@H](CCC(=O)O)C(=O)N[C@@H](CC(C)C)C(=O)N[C@@H](CC(C)C)C(=O)N[C@@H](CCC(=O)O)C(=O)N[C@@H](CCCCN)C(=O)N[C@@H](CC(C)C)C(=O)N[C@@H](CC(C)C)C(=O)NC(C)(C)C(=O)N[C@@H](CCCCN)C(=O)N[C@@H](CC(C)C)C(=O)N[C@@H](Cc1cnc[nH]1)C(=O)N[C@H](C(=O)N[C@@H](C)C(N)=O)[C@@H](C)O` [abaloparatide, [Glu^22,25, Leu^23,28,31, Aib^29, Lys^26,30]hPTHrP(1-34)NH2] as the compound, how does the “Anti-abaloparatide antibody titer in positive patients” value [1] read?
Its value is ≤ 1:20.

And the “Patients with positive anti-abaloparatide antibody titer” value [1]?
Its value is 12%.

What about the “AE: Hypercalcemia (serum albumin-corrected calcium value ≧10.7 mg/dL)” value [2] of the same compound?
The value was 3.41%^†.

And the “AE: Influenza” value [3]?
Its value is 6.3%.

Which results are given for alendronate [PBO/ALN]?
AE: Abdominal pain, upper [4, 6]: 2.6%; AE: Arthralgia [4, 6]: 4.7%; AE: Back pain [4, 6]: 2.1%; AE: Bone Pain [4, 6]: 1.2%; AE: Diarrhea [4, 6]: 1.4%; AE: Dyspepsia [4, 6]: 2.2%; AE: Hypercalciuria [4, 6]: 1.6%; AE: Hypertension [4, 6]: 2.1%; AE: Nasopharyngitis [4, 6]: 1.4%; AE: Pain in extremity [4, 6]: 2.4%; AE: Upper respiratory tract infection [4, 6]: 4.5%; AE: Urinary tract infection [4, 6]: 1.0%; AE: Influenza ([4]; human, in vivo): 1.0%; Fracture Rate, incident clinical fractures [5]: 7.1%; Fracture Rate, incident non-vertebral fractures [5]: 5.5%; Fracture Rate, major osteoporotic fractures [5]: 4.6%; Fracture Rate, new incident vertebral fractures [5]: 4.4%
